According to ChEMBL document CHEMBL5291721, “A preclinical secondary pharmacology resource illuminates target-adverse drug reaction associations of marketed drugs” (Nat Commun, 2023):

How the values were obtained:
[1] = molecular target: Voltage-gated inwardly rectifying potassium channel KCNH2 (Homo sapiens, UniProt Q12809); format: functional
[2] = molecular target: T1, Alpha-2A adrenergic receptor (Homo sapiens, UniProt P08913); format: functional, cell-based
T1 sequence (P08913 whole entry): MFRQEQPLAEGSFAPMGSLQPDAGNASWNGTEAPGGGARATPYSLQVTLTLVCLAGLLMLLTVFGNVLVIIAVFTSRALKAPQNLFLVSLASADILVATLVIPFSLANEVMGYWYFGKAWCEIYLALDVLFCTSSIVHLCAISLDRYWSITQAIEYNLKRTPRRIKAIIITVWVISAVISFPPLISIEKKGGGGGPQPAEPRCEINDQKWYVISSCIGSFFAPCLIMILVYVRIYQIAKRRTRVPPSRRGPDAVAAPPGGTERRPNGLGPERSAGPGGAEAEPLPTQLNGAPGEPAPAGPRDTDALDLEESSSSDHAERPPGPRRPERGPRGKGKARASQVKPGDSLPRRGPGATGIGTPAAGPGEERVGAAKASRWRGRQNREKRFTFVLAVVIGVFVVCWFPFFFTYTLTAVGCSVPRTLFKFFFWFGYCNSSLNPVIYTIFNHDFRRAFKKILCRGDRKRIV

[3] = molecular target: T2, Alpha-1A adrenergic receptor (Homo sapiens, UniProt P35348); format: functional, cell-based
T2 sequence (P35348 whole entry): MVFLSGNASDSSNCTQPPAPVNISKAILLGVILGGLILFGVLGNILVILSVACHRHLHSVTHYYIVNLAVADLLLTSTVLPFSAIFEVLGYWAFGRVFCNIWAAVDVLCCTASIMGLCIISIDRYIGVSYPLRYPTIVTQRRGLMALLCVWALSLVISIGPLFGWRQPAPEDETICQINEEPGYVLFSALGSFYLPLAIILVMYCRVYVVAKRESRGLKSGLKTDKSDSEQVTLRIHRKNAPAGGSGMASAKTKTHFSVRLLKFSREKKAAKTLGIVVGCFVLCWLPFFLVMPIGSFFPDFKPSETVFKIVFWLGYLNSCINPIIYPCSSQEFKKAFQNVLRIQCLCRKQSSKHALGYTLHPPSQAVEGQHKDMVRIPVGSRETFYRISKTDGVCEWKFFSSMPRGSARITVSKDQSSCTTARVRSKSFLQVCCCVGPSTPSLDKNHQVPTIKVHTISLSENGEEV

Thromboxane A2 receptor = molecular target: T3, Thromboxane A2 receptor (Homo sapiens, UniProt P21731)
T3 sequence (P21731 whole entry): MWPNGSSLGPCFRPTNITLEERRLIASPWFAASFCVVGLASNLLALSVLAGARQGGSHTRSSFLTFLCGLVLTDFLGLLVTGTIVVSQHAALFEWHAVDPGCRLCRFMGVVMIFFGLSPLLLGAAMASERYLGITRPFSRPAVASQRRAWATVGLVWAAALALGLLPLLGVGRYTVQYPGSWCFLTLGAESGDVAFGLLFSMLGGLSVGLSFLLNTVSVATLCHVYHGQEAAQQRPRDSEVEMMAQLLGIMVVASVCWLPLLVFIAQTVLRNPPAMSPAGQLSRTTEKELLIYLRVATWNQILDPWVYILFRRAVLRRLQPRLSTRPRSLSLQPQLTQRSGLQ

Glucocorticoid receptor = molecular target: T4, Glucocorticoid receptor (Homo sapiens, UniProt P04150)
T4 sequence (P04150 whole entry): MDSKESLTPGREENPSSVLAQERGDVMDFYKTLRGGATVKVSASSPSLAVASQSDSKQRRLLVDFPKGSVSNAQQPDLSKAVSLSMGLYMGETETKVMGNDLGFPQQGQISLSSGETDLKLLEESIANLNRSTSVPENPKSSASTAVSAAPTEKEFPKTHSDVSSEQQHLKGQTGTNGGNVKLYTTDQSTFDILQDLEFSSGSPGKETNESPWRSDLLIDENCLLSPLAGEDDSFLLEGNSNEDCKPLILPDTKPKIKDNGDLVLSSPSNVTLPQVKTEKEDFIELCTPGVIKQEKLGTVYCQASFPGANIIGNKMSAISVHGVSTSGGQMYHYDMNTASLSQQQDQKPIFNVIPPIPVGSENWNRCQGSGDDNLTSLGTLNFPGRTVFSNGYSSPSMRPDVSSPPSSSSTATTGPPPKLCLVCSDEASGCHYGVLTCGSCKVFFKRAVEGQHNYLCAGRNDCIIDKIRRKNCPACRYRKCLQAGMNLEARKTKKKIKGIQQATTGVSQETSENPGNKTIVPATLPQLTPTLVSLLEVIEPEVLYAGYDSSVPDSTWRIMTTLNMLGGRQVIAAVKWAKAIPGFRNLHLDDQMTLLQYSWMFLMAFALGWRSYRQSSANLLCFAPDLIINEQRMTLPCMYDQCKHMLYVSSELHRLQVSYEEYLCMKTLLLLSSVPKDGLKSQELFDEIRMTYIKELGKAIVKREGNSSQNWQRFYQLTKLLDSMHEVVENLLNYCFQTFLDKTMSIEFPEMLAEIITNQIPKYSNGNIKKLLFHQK

Histamine H2 receptor = Histamine H2 receptor (Homo sapiens, UniProt P25021); format: functional, cell-based
[4] = molecular target: Glutamate receptor ionotropic, NMDA 1 (Rattus norvegicus, UniProt P35439)
[5] = molecular target: T5, Amine oxidase [flavin-containing] A (Homo sapiens, UniProt P21397); format: functional
T5 sequence (P21397 whole entry): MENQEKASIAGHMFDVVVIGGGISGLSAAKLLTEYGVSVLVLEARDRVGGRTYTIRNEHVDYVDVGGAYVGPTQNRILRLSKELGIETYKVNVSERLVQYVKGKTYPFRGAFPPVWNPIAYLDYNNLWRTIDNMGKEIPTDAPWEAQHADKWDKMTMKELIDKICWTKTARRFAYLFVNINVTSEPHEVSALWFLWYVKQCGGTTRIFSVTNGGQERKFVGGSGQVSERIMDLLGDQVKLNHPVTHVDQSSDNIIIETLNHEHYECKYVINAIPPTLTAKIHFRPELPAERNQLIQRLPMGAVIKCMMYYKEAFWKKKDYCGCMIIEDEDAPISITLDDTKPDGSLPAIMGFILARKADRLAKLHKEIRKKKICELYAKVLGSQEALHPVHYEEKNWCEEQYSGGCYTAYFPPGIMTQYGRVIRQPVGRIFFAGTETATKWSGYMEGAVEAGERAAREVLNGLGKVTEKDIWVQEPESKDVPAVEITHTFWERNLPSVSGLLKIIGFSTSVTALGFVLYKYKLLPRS
Note: assay procedure not described here.

Histamine H2 receptor, sequence (P25021 whole entry): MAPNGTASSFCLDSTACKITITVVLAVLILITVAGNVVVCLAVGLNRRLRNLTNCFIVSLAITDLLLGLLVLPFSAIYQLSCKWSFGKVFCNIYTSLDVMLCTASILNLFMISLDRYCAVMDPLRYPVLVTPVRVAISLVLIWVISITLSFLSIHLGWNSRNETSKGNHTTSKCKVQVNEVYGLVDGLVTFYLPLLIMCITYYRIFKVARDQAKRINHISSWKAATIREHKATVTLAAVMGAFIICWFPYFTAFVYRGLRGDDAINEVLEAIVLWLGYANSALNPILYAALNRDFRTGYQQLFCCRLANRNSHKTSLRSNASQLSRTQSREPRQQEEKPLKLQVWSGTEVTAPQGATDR
Voltage-gated inwardly rectifying potassium channel KCNH2, sequence (Q12809 whole entry): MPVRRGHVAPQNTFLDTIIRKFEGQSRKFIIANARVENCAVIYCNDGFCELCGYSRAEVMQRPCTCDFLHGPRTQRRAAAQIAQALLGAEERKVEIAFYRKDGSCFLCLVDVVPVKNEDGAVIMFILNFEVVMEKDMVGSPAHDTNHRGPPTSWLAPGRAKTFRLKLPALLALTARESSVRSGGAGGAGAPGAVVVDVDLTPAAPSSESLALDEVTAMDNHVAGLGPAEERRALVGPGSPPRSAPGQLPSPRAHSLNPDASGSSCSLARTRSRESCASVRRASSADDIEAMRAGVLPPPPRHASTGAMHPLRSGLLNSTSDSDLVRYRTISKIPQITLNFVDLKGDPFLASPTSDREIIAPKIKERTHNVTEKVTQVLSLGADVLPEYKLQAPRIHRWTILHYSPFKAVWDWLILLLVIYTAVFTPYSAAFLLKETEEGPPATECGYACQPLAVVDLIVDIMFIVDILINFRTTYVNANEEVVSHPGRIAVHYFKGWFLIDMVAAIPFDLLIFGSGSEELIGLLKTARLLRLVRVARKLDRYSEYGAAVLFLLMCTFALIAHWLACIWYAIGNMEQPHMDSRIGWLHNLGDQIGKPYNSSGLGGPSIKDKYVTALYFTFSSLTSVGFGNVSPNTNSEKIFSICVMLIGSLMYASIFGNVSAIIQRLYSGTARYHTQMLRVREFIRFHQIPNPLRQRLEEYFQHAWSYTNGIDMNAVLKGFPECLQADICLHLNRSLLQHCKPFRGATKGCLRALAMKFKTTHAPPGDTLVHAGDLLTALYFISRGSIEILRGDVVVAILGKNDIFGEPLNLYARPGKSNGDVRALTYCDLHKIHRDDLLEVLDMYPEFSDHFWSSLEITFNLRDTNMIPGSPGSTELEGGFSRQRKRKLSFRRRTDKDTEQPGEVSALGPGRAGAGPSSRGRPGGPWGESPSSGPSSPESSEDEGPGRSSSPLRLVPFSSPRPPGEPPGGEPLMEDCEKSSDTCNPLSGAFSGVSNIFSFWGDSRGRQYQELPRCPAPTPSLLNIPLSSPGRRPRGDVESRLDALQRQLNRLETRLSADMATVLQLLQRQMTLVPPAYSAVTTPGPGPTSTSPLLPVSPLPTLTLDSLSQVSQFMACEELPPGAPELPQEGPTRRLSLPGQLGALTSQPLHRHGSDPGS

AC50 [2]: > 10 µM
AC50 [3]: > 30 µM
AC50 (Thromboxane A2 receptor): > 10 µM
AC50 (Glucocorticoid receptor): > 30 µM
AC50 (Histamine H2 receptor): > 10 µM
AC50 [4]: > 10 µM
AC50 [5]: > 10 µM
Compound: CC(c1cc2ccccc2s1)N(O)C(N)=O (stereo not drawn) [ZILEUTON]
AC50 [1]: > 30 µM
